The source made the active and inactive calls. The rule behind the calls is not given here.

In one test the test system is HUVEC. The experiment in a line: Cytoprotective activity against H2O2-induced cell injury in HUVEC assessed as increase in cell viability at 100 uM pretreated for 24 hrs followed by H2O2-stimulation after 2 hrs by MTT assay. The test is classed as functional, cell-based. The following applies: Homo sapiens. On the technique in general: Tetrazolium dyes change colour on reduction, which living cells bring about.
As for VITAMIN E, the outcome was Active.

A further test deals with HUVEC. The experiment in a line: Cytoprotective activity against H2O2-induced cell injury in HUVEC assessed as increase in cell viability at 10 uM pretreated for 24 hrs followed by H2O2-stimulation after 2 hrs by MTT assay. The test is classed as functional, cell-based. The following applies: Homo sapiens.
Consider `C=C[C@]1(C)CC[C@@H](C(=C)COCc2cn(CCCCn3cc(COCC(=C)[C@@H]4CC[C@@](C)(C=C)[C@H](C(=C)C)C4)nn3)nn2)C[C@H]1C(=C)C`, for which the outcome was Active.
The same measure, in the same setting: next, `C=C[C@]1(C)CC[C@@H](C(=C)COC(=O)CCCn2cc(C(=O)OCC(=C)[C@@H]3CC[C@@](C)(C=C)[C@H](C(=C)C)C3)nn2)C[C@H]1C(=C)C`: “Active”.
Still for that read-out and setting: next, `C=C[C@]1(C)CC[C@@H](C(=C)COCc2cn(CCCCC(=O)OCC(=C)[C@@H]3CC[C@@](C)(C=C)[C@H](C(=C)C)C3)nn2)C[C@H]1C(=C)C`: “Active”; `C=C[C@]1(C)CC[C@@H](C(=C)COC(=O)CCC(=O)OCC(=C)[C@@H]2CC[C@@](C)(C=C)[C@H](C(=C)C)C2)C[C@H]1C(=C)C`: “Active”.
The same measure, in the same setting: in the case of `C=C[C@]1(C)CC[C@@H](C(=C)COCc2cn(CCCC(=O)OCC(=C)[C@@H]3CC[C@@](C)(C=C)[C@H](C(=C)C)C3)nn2)C[C@H]1C(=C)C` it was “Active”; in that of `C=C[C@]1(C)CC[C@@H](C(=C)COC(=O)CC[C@H](N)C(=O)OCC(=C)[C@@H]2CC[C@@](C)(C=C)[C@H](C(=C)C)C2)C[C@H]1C(=C)C`, “Active”.
As to `C=C[C@]1(C)CC[C@@H](C(=C)CN2CCN(CC(=C)[C@@H]3CC[C@@](C)(C=C)[C@H](C(=C)C)C3)CC2)C[C@H]1C(=C)C`, the outcome was Active.
Consider `C=C[C@]1(C)CC[C@@H](C(=C)COC(=O)c2cccc3cccc(C(=O)OCC(=C)[C@@H]4CC[C@@](C)(C=C)[C@H](C(=C)C)C4)c23)C[C@H]1C(=C)C`, for which the result was Active.
Still for that read-out and setting: next, `C=C[C@]1(C)CC[C@@H](C(=C)COC(=O)CCN2CCN(CCC(=O)OCC(=C)[C@@H]3CC[C@@](C)(C=C)[C@H](C(=C)C)C3)CC2)C[C@H]1C(=C)C`: “Active”; `C=C[C@]1(C)CC[C@@H](C(=C)COC(=O)CCCCCn2cc(C(=O)OCC(=C)[C@@H]3CC[C@@](C)(C=C)[C@H](C(=C)C)C3)nn2)C[C@H]1C(=C)C`: “Active”; `C=C[C@]1(C)CC[C@@H](C(=C)COC(=O)CCC(=O)N2CCN(C(=O)CCC(=O)OCC(=C)[C@@H]3CC[C@@](C)(C=C)[C@H](C(=C)C)C3)CC2)C[C@H]1C(=C)C`: “Active”.
The same measure, in the same setting: next, `C=C[C@]1(C)CC[C@@H](C(=C)COC(=O)[C@@H]2[C@H](C(=O)OCC(=C)[C@@H]3CC[C@@](C)(C=C)[C@H](C(=C)C)C3)[C@@H]3C=C[C@H]2C3)C[C@H]1C(=C)C`: “Active”; `C=C[C@]1(C)CC[C@@H](C(=C)COCc2cn(CCCCCC(=O)OCC(=C)[C@@H]3CC[C@@](C)(C=C)[C@H](C(=C)C)C3)nn2)C[C@H]1C(=C)C`: “Active”; `C=C[C@]1(C)CC[C@@H](C(=C)COC(=O)c2cn(CCCCCCn3cc(C(=O)OCC(=C)[C@@H]4CC[C@@](C)(C=C)[C@H](C(=C)C)C4)nn3)nn2)C[C@H]1C(=C)C`: “Active”.
Consider `C=C[C@]1(C)CC[C@@H](C(=C)COC(=O)c2ccc(C(=O)OCC(=C)[C@@H]3CC[C@@](C)(C=C)[C@H](C(=C)C)C3)cc2)C[C@H]1C(=C)C`, for which the result was Active.
`C=C[C@]1(C)CC[C@@H](C(=C)COC(=O)C(=O)OCC(=C)[C@@H]2CC[C@@](C)(C=C)[C@H](C(=C)C)C2)C[C@H]1C(=C)C`: the result was Active.
On the same count and under the same terms, next, `C=C[C@]1(C)CC[C@@H](C(=C)COC(=O)CCN(C)CCN(C)CCC(=O)OCC(=C)[C@@H]2CC[C@@](C)(C=C)[C@H](C(=C)C)C2)C[C@H]1C(=C)C`: “Active”; `C=C[C@]1(C)CC[C@@H](C(=C)COC(=O)C[C@H](N)C(=O)OCC(=C)[C@@H]2CC[C@@](C)(C=C)[C@H](C(=C)C)C2)C[C@H]1C(=C)C`: “Active”; `C=C[C@]1(C)CC[C@@H](C(=C)COC(=O)CC(=O)OCC(=C)[C@@H]2CC[C@@](C)(C=C)[C@H](C(=C)C)C2)C[C@H]1C(=C)C`: “Active”.
Regarding `C=C[C@]1(C)CC[C@@H](C(=C)COC(=O)c2cccc(C(=O)OCC(=C)[C@@H]3CC[C@@](C)(C=C)[C@H](C(=C)C)C3)c2)C[C@H]1C(=C)C`, the outcome was Active.
The same measure, in the same setting: in the case of `C=C[C@]1(C)CC[C@@H](C(=C)CN(C)CCN(C)CC(=C)[C@@H]2CC[C@@](C)(C=C)[C@H](C(=C)C)C2)C[C@H]1C(=C)C` it was “Active”; in that of `C=C[C@]1(C)CC[C@@H](C(=C)COC(=O)CCCN2CCN(CCCC(=O)OCC(=C)[C@@H]3CC[C@@](C)(C=C)[C@H](C(=C)C)C3)CC2)C[C@H]1C(=C)C`, “Active”.
As for `C=C[C@]1(C)CC[C@@H](C(=C)COC(=O)CCCN(C)CCN(C)CCCC(=O)OCC(=C)[C@@H]2CC[C@@](C)(C=C)[C@H](C(=C)C)C2)C[C@H]1C(=C)C`, the result was Active.
Regarding `C=C[C@]1(C)CC[C@@H](C(=C)COC(=O)COCC(=O)OCC(=C)[C@@H]2CC[C@@](C)(C=C)[C@H](C(=C)C)C2)C[C@H]1C(=C)C`, the outcome was Active.
Still for that read-out and setting: next, `C=C[C@]1(C)CC[C@@H](C(=C)COCc2cn(CCCCCCn3cc(COCC(=C)[C@@H]4CC[C@@](C)(C=C)[C@H](C(=C)C)C4)nn3)nn2)C[C@H]1C(=C)C`: “Active”.
Still for that read-out and setting: in the case of `C=C[C@]1(C)CC[C@@H](C(=C)COC(=O)CCCCn2cc(C(=O)OCC(=C)[C@@H]3CC[C@@](C)(C=C)[C@H](C(=C)C)C3)nn2)C[C@H]1C(=C)C` it was “Active”; in that of `C=C[C@]1(C)CC[C@@H](C(=C)COCCCCOCC(=C)[C@@H]2CC[C@@](C)(C=C)[C@H](C(=C)C)C2)C[C@H]1C(=C)C`, “Active”.
The same measure, in the same setting: in the case of `C=C[C@]1(C)CC[C@@H](C(=C)COC(=O)c2cn(CCCCn3cc(C(=O)OCC(=C)[C@@H]4CC[C@@](C)(C=C)[C@H](C(=C)C)C4)nn3)nn2)C[C@H]1C(=C)C` it was “Active”.
Turning to `C=C[C@]1(C)CC[C@@H](C(=C)COC(=O)CCCC(=O)OCC(=C)[C@@H]2CC[C@@](C)(C=C)[C@H](C(=C)C)C2)C[C@H]1C(=C)C`, the result was Active.

Values taken from ChEMBL document CHEMBL4004891, “Antioxidant Properties of Novel Dimers Derived from Natural β-Elemene through Inhibiting H2O2-Induced Apoptosis” (ACS Med Chem Lett, 2017).
